3 molecules from patent US20230263757A1, “DISINFECTING WIPE KIT FOR CENTRAL VENOUS ACCESS DEVICES” (SterileCare Inc., priority 2022, published 2023) can be followed below.

The test system of assay [1] is MRSA ON184. In words: MBC/MFC determination. Type of assay: cell-based, S. aureus. The note with it: alone. On the procedure: (§1) An assay was made using a minimum inhibitory concentration (MIC) and minimum bactericidal concentration (MBC) and minimum fungicidal concentration (MFC) determination. The MIC was determined by the micro broth dilution method in 96-well plates. Serial two-fold dilutions of tetrasodium EDTA (from 2% to 0.015%), ethanol (from 50% to 0.1%) and chlorhexidine HCl (from 100 μg/mL to 0.025 μg/mL) were prepared in MH broth with a final volume of 90 μL per well. A 10 μL containing 1×10^5 bacterial cells or 2×10^3 fungal cells were added to each well. The inoculated plates were covered with a lid, sealed with Parafilm, and incubated for 24 h at 37° C. with slight rocking on a tilting platform shaker. After incubation, the optical density at 600 nm (OD 600) of the cultures in each well was measured using an xMark™ Microplate Absorbance Spectrophotometer (Bio-Rad). […] MBCs and MFCs were determined by transferring 100 μL from each well with no apparent growth onto appropriate agar plates, followed by incubation for 24 h at 37° C.

Assay [2] concerns MRSA ON184. In words: Checkerboard titration, FICI. The following applies: for concentration in combination: EDTA + ethanol. Type of assay: cell-based, S. aureus. As for the experimental part:
(§2) A fourth composition and solution included tetrasodium EDTA with ethanol or chlorhexidine HCl. This fourth composition and solution were created using checkerboard titration methods using micro broth dilution in 96-well microtiter plates. The concentrations of antimicrobials used were based on previously determined MIC values. Briefly, 200 μL, of two-fold dilutions of tetrasodium EDTA and ethanol or chlorhexidine HCl were prepared in MH or MH II broth with standardized cell suspension. […] Microtiter plates were incubated at 37° C. for 24 h, and the results were analyzed. Each test was performed in duplicate and included a growth control without adding any antimicrobials.

Assay [3] has as its system 48-h-old biofilms of bacterial and fungal strains. In words: MBEC assay, 24-h exposure. Type of assay: cell-based. The following applies: 24 h of treatment. As for the experimental part: A biofilm cultivation cell composition was provided. This fifth composition was created using an MBEC Assay® biofilm inoculator, consisting of a polystyrene lid with 96 downward-protruding pegs and a corresponding base used to grow biofilms. A standardized inoculum was diluted in an appropriate biofilm growth medium to achieve a viable cell count of 1.5×10^6 CFU/mL of bacterial cells or 5×10^5 CFU/mL of fungal cells. Then, 150 μL of this inoculum was transferred into each appropriate well, and the peg lids were inserted into the microtiter plates. The plates were sealed with Parafilm and were incubated at optimum temperature for 48 h with slight rocking for bacteria and shaking at 200 rpm for fungal strains. After incubation, the peg lid was removed from the base and rinsed twice with sterile phosphate-buffered saline (PBS) for 2 min to remove loosely attached non-sessile cells. Before the antimicrobial challenge, the pegs in column 1 (n=8) were considered the biofilm growth control; these pegs were removed from the lids, placed into 200 μL of recovery medium, and analyzed for starting biofilm cell numbers as described below. […] After the antimicrobial challenge, the pegs were rinsed twice with sterile PBS for 2 min and placed into a new 96-well plate containing 200 μL of recovery medium. The recovery plates were sealed with Parafilm, and biofilm cells were dislodged from the pegs by sonication for 30 min with a Branson 3510 bath sonicator. The biofilm cells in the recovery medium were serially diluted, and a drop dilution assay was performed to enumerate the viable cells. MBEC values were determined as the minimum concentration of antimicrobials that yielded a viable cell count at or lower than the 125 CFU/mL detection limit.

Another assay deals with S. epidermidis SK9. In words: MBC/MFC determination. The assay is classed as cell-based, Staphylococcus epidermidis. The following applies: alone. On the procedure: as §1
Assay [4] deals with C. albicans ON47. In words: FBEC index, checkerboard on biofilms. Type of assay: cell-based, Candida albicans. The note with it: for biofilm eradication concentration in combination (FBEC): EDTA + ethanol.
Protocol: (§4) In step (4), microtiter plates are incubated at 37° C. for 24 h. then (6), after incubation, the bacterial and fungal cells were dislodged from the pegs into the recovery medium described above.
(§5) Three 10-μL aliquots, for a total of 30 μL from each well of recovery medium, were spotted on MH agar plates and incubated for 24 h at 37° C. […] The FBEC determination is a modification of the FICI.
The test system of assay [5] is Candida albicans SK4b. In words: FBEC index, checkerboard on biofilms. Type of assay: cell-based. The note with it: for biofilm eradication concentration in combination (FBEC): EDTA + ethanol.
Protocol: as §4, §5
In assay [6] the test system is Staphylococcus aureus ON89. In words: MBEC assay, 48-h biofilm, 24 h exposure. Type of assay: cell-based. On the procedure: (§3) A biofilm cultivation cell composition was provided. This fifth composition was created using an MBEC Assay® biofilm inoculator, consisting of a polystyrene lid with 96 downward-protruding pegs and a corresponding base used to grow biofilms. A standardized inoculum was diluted in an appropriate biofilm growth medium to achieve a viable cell count of 1.5×10^6 CFU/mL of bacterial cells or 5×10^5 CFU/mL of fungal cells. Then, 150 μL of this inoculum was transferred into each appropriate well, and the peg lids were inserted into the microtiter plates. The plates were sealed with Parafilm and were incubated at optimum temperature for 48 h with slight rocking for bacteria and shaking at 200 rpm for fungal strains. After incubation, the peg lid was removed from the base and rinsed twice with sterile phosphate-buffered saline (PBS) for 2 min to remove loosely attached non-sessile cells. Before the antimicrobial challenge, the pegs in column 1 (n=8) were considered the biofilm growth control; these pegs were removed from the lids, placed into 200 μL of recovery medium, and analyzed for starting biofilm cell numbers as described below. The rinsed pegs were placed into new 96-well plates containing two-fold dilutions of antimicrobials such as tetrasodium EDTA (4%-0.0125%), ethanol (100%-0.2%), and chlorhexidine HCl (100 μg/mL-0.4 μg/mL) in 200 μL of suitable biofilm growth medium per well and incubated at optimum temperature for 24 h. After the antimicrobial challenge, the pegs were rinsed twice with sterile PBS for 2 min and placed into a new 96-well plate containing 200 μL of recovery medium. The recovery plates were sealed with Parafilm, and biofilm cells were dislodged from the pegs by sonication for 30 min with a Branson 3510 bath sonicator. The biofilm cells in the recovery medium were serially diluted, and a drop dilution assay was performed to enumerate the viable cells. MBEC values were determined as the minimum concentration of antimicrobials that yielded a viable cell count at or lower than the 125 CFU/mL detection limit.

Assay [7] relates to Candida albicans SK4b. In words: MBEC assay, 48-h biofilm, 24 h exposure. Type of assay: cell-based. As for the experimental part: as §3
Assay [8] concerns Pseudomonas aeruginosa SK1. In words: MBEC assay, 48-h biofilm, 24 h exposure. The assay is classed as cell-based. As for the experimental part: as §3
The subject of another assay is Escherichia coli SK2. In words: MBEC assay, 48-h biofilm, 24 h exposure. Type of assay: cell-based. On the procedure: as §3
Assay [9] has as its system Proteus mirabilis ON153. In words: MBEC assay, 48-h biofilm, 24 h exposure. The assay is classed as cell-based. On the procedure: as §3
Assay [10] deals with Staphylococcus epidermidis SK9. In words: MBEC assay, 48-h biofilm, 24 h exposure. The assay is classed as cell-based. On the procedure:
as §3

The test system of assay [11] is MRSA ON184. In words: FBEC index, checkerboard on biofilms. The assay is classed as cell-based, S. aureus. The following applies: for biofilm eradication concentration in combination (FBEC): EDTA + ethanol.
Protocol: as §4, §5
Assay [12] relates to Pseudomonas aeruginosa SK1. In words: MBC/MFC determination. Type of assay: cell-based. The note with it: alone. As for the experimental part: as §1
For assay [13], the system named is Proteus mirabilis ON153. In words: MBC/MFC determination. Type of assay: cell-based. The note with it: alone. On the procedure:
as §1

The subject of assay [14] is C. albicans ON47. In words: Checkerboard titration, FICI. The note with it: for concentration in combination: EDTA + ethanol. Type of assay: cell-based, Candida albicans. As for the experimental part: as §2
Assay [15] concerns Staphylococcus epidermidis SK9. In words: FBEC index, checkerboard on biofilms. Type of assay: cell-based. The note with it: for biofilm eradication concentration in combination (FBEC): EDTA + ethanol.
Protocol: as §4, §5

Counter-ions that a name gives are not always drawn.

Turning to `[H]/N=C(\N/C(=N/[H])NCCCCCCNC(=N)NC(=N)Nc1ccc(Cl)cc1)Nc1ccc(Cl)cc1` [Chlorhexidine HCl, 1,6-bis(4′-chlorophenylbiguanide) hexane], the MBC/MFC in the assay on MRSA ON184 [1] was 1.6 µg/mL; in the assay with S. epidermidis SK9, 0.8 µg/mL; in assay [12] it was 3.125 µg/mL; with Proteus mirabilis ON153 [13], 50 µg/mL. Further, the entries for the “Chlorhexidine HCl concentration in combination” value in the assay with MRSA ON184 [2] (EDTA + chlorhexidine HCl) and in the assay with C. albicans ON47 [14] (EDTA + chlorhexidine HCl) were 0.2 µg/mL and 0.8 µg/mL, respectively. Moreover, the “concentration alone able to eradicate all established biofilms” value (from here on “concentration alone able”) in assay [3] is 100 µg/mL. The “Chlorhexidine HCl biofilm eradication concentration in combination (FBEC)” value was found to be 6.25 µg/mL in the assay on C. albicans ON47 [4] (EDTA + chlorhexidine HCl), 6.25 µg/mL in the assay with Candida albicans SK4b [5] (EDTA + chlorhexidine HCl), 6.25 µg/mL with MRSA ON184 [11] (EDTA + chlorhexidine HCl) and 3.125 µg/mL in assay [15] (EDTA + chlorhexidine HCl). In addition, the MBEC in assay [6] was found to be 100 µg/mL; in the assay with Candida albicans SK4b [7], 50 µg/mL; in assay [8] it was 100 µg/mL; in the assay on Escherichia coli SK2, 50 µg/mL; in the assay with Proteus mirabilis ON153 [9], 100 µg/mL; in assay [10] it was 25 µg/mL.
Turning to `O=C([O-])CN(CCN(CC(=O)[O-])CC(=O)[O-])CC(=O)[O-].[Na+].[Na+].[Na+].[Na+]` [EDTA, tetrasodium EDTA], the MBC/MFC worked out at 2 % w/v in the assay with MRSA ON184 [1], 0.5 % w/v against S. epidermidis SK9, 1 % w/v in assay [12] and 2 % w/v against Proteus mirabilis ON153 [13]. The “EDTA concentration in combination” value in the assay with MRSA ON184 [2] (EDTA + chlorhexidine HCl) amounted to 0.008 % w/v; in the assay on C. albicans ON47 [14] (EDTA + chlorhexidine HCl), 0.125 % w/v. For the same molecule, the concentration in combination in the assay on MRSA ON184 [2] is 0.015 % w/v; in the assay with C. albicans ON47 [14], 0.25 % w/v. Besides, the “concentration alone able” value in assay [3] is given as 4%. In addition, the “EDTA biofilm eradication concentration in combination (FBEC)” value is 0.031 % w/v with C. albicans ON47 [4] (EDTA + chlorhexidine HCl), 0.063 % w/v in the assay on Candida albicans SK4b [5] (EDTA + chlorhexidine HCl), 0.031 % w/v in the assay with MRSA ON184 [11] (EDTA + chlorhexidine HCl) and 0.125 % w/v in assay [15] (EDTA + chlorhexidine HCl). Also, the “biofilm eradication concentration in combination (FBEC)” value in the assay on C. albicans ON47 [4] worked out at 0.125 % w/v; in the assay with Candida albicans SK4b [5] it was 0.125 % w/v; in the assay with MRSA ON184 [11], 0.063 % w/v; in assay [15], 0.031 % w/v. Further, the MBEC in [6] stood at 4 % w/v; in the assay on Candida albicans SK4b [7] it was 1 % w/v; in assay [8], 4 % w/v; with Escherichia coli SK2, 2 % w/v; in the assay with Proteus mirabilis ON153 [9], 4 % w/v; in assay [10], 2 % w/v.
In the case of `CCO` [Ethanol, ethanol], the MBC/MFC in the assay on MRSA ON184 [1] was 25 % w/v; in the assay with S. epidermidis SK9 it was 12.5 % w/v; in [12] it was 12.5 % w/v; in the assay with Proteus mirabilis ON153 [13], 12.5 % w/v. The concentration in combination in the assay on MRSA ON184 [2] and with C. albicans ON47 [14] was 0.4 % w/v throughout. Also, in assay [3], the “concentration alone able” value is recorded as 5%. Besides, the “biofilm eradication concentration in combination (FBEC)” value (with C. albicans ON47 [4]; in the assay with Candida albicans SK4b [5]; in the assay on MRSA ON184 [11]; in assay [15]) was 1.6 % w/v throughout. Moreover, the MBEC in [6] was found to be 12.5 % w/v; in the assay with Candida albicans SK4b [7], 12.5 % w/v; in assay [8], 12.5 % w/v; with Escherichia coli SK2, 12.5 % w/v; with Proteus mirabilis ON153 [9] it was 50 % w/v; in assay [10] it was 12.5 % w/v.
